Experimental data reported in ChEMBL document CHEMBL1137549, “1-Aminocyclopentane-1,2,4-tricarboxylic acids screening on glutamatergic and serotonergic systems” (Bioorg Med Chem, 2007).
Active and inactive are the calls of the source. The rule behind the calls is not given here.

Tests used:
[1] = biological target: T1, 5-hydroxytryptamine receptor 1A (Rattus norvegicus, UniProt P19327); test: Displacement of [3H]8-OH-DPAT from 5HT1A receptor in rat cortex membrane; type: cell membranes
T1 sequence (P19327 whole entry): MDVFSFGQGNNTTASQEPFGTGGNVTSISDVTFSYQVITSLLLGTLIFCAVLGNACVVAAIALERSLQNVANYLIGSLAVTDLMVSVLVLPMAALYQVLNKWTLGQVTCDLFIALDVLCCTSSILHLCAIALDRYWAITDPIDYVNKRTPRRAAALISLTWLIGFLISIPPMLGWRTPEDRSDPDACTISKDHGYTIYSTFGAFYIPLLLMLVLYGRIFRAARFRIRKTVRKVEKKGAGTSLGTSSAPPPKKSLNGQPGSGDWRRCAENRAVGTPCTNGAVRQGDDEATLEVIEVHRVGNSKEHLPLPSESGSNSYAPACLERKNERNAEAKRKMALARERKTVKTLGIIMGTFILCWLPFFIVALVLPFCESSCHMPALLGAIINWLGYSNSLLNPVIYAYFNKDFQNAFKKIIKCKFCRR

[2] = biological target: Sodium-dependent serotonin transporter (Homo sapiens, UniProt P31645); type: cell membranes
Chain of Sodium-dependent serotonin transporter (P31645 whole entry): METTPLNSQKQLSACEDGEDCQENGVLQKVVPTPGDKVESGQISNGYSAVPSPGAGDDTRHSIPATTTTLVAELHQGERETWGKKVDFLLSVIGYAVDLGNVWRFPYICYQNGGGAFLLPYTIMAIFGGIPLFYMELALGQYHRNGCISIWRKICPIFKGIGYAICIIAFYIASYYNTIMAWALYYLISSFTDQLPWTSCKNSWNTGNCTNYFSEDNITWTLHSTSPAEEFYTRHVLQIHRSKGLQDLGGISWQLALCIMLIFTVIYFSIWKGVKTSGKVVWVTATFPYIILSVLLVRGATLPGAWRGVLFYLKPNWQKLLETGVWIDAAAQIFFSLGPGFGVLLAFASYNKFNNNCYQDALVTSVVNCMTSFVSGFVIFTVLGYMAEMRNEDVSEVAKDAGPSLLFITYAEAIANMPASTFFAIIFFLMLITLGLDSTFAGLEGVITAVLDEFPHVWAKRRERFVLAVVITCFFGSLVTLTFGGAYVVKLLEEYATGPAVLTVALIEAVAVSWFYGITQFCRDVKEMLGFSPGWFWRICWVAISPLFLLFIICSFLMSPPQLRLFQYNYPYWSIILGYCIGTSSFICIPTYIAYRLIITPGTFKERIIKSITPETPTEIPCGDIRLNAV

[3] = biological target: 5-hydroxytryptamine receptor 2A (Rattus norvegicus, UniProt P14842); test: Displacement of [3H]ketanserin from 5HT2A receptor in rat cortex membrane; type: cell membranes
Chain of 5-hydroxytryptamine receptor 2A (P14842 whole entry): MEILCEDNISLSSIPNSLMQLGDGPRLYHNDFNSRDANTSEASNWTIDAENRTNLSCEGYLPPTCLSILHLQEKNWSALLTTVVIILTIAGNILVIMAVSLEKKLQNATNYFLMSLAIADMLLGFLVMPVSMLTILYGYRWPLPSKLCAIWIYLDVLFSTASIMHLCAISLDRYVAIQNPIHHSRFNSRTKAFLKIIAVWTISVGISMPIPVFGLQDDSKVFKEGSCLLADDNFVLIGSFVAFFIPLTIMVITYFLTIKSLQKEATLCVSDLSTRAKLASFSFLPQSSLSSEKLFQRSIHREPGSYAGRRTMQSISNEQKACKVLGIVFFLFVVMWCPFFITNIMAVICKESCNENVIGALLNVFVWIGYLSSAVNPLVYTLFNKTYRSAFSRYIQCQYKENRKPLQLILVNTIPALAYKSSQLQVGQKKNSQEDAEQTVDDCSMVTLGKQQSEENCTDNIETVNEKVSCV

[4] = biological target: Metabotropic glutamate receptor 2 (Homo sapiens) (UniProt Q14416); test: Antagonist activity at mGluR2 expressed in CHO cells assessed as inhibition of glutamate-induced cAMP accumulation at 10 uM; type: functional, cell-based
Chain of Metabotropic glutamate receptor 2 (Homo sapiens) (Q14416 19-872 limits assumed): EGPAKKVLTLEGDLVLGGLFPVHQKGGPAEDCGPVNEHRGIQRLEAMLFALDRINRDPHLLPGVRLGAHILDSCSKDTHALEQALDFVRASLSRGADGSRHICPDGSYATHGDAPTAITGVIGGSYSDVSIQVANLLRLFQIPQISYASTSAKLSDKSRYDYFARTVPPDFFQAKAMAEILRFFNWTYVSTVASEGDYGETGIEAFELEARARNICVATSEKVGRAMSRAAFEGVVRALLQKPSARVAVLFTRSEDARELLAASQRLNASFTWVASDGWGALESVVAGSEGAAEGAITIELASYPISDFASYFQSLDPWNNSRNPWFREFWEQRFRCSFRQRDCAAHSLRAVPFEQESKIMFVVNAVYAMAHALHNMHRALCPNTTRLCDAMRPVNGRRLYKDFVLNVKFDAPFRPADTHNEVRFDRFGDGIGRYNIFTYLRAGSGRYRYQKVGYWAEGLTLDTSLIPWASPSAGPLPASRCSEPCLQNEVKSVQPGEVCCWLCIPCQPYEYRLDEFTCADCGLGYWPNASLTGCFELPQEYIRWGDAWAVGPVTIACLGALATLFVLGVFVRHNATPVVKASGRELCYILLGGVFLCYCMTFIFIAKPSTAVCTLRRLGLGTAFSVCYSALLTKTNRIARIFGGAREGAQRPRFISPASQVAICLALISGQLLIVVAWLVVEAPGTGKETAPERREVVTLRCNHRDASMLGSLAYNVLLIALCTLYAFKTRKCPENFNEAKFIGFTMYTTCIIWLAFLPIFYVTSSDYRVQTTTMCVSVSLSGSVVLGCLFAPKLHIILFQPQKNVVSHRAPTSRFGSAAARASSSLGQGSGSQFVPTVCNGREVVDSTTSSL

[5] = biological target: Metabotropic glutamate receptor 6 (Homo sapiens) (UniProt O15303); test: Agonist activity at mGluR6 expressed in CHO cells assessed as decrease in cAMP accumulation at 10 uM; type: functional, cell-based; set-up: scale not given: the % may be the effect or the level left
Chain of Metabotropic glutamate receptor 6 (Homo sapiens) (O15303 whole entry): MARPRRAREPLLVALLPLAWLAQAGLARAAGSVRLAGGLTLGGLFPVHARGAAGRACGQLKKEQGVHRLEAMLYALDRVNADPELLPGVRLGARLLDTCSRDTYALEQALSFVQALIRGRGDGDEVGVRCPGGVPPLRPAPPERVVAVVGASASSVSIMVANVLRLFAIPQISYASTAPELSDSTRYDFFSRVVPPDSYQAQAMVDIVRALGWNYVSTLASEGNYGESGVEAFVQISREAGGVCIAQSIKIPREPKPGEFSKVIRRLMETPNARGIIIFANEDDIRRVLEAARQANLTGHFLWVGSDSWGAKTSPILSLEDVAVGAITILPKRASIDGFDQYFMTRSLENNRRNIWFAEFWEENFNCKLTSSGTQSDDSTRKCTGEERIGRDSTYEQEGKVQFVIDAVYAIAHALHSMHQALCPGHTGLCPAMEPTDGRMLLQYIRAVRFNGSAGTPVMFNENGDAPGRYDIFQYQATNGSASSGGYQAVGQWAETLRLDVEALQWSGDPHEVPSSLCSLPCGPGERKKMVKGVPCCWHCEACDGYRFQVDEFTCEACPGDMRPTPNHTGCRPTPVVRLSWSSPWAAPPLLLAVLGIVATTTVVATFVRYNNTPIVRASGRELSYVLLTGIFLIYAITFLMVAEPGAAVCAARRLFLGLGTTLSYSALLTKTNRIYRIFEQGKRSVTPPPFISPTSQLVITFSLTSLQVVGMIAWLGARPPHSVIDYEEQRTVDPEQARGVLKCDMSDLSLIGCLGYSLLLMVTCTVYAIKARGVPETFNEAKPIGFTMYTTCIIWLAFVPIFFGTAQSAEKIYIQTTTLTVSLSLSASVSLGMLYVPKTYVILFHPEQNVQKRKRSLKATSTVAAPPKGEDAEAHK

[6] = biological target: Metabotropic glutamate receptor 6 (Homo sapiens) (UniProt O15303); test: Antagonist activity at mGluR6 expressed in CHO cells assessed as inhibition of AP4-induced cAMP accumulation at 10 uM; type: functional, cell-based
[7] = biological target: Metabotropic glutamate receptor 2 (Homo sapiens) (UniProt Q14416); test: Agonist activity at mGluR2 expressed in CHO cells assessed as decrease in cAMP accumulation at 10 uM; type: functional, cell-based; set-up: scale not given: the % may be the effect or the level left
[8] = biological target: Metabotropic glutamate receptor 1 (Homo sapiens) (UniProt Q13255); test: Antagonist activity at mGluR1 expressed in CHO cells assessed as inhibition of glutamate stimulated phosphatidyl inositol hydrolysis at 10 uM; type: functional, cell-based
Chain of Metabotropic glutamate receptor 1 (Homo sapiens) (Q13255 19-1194 limits assumed): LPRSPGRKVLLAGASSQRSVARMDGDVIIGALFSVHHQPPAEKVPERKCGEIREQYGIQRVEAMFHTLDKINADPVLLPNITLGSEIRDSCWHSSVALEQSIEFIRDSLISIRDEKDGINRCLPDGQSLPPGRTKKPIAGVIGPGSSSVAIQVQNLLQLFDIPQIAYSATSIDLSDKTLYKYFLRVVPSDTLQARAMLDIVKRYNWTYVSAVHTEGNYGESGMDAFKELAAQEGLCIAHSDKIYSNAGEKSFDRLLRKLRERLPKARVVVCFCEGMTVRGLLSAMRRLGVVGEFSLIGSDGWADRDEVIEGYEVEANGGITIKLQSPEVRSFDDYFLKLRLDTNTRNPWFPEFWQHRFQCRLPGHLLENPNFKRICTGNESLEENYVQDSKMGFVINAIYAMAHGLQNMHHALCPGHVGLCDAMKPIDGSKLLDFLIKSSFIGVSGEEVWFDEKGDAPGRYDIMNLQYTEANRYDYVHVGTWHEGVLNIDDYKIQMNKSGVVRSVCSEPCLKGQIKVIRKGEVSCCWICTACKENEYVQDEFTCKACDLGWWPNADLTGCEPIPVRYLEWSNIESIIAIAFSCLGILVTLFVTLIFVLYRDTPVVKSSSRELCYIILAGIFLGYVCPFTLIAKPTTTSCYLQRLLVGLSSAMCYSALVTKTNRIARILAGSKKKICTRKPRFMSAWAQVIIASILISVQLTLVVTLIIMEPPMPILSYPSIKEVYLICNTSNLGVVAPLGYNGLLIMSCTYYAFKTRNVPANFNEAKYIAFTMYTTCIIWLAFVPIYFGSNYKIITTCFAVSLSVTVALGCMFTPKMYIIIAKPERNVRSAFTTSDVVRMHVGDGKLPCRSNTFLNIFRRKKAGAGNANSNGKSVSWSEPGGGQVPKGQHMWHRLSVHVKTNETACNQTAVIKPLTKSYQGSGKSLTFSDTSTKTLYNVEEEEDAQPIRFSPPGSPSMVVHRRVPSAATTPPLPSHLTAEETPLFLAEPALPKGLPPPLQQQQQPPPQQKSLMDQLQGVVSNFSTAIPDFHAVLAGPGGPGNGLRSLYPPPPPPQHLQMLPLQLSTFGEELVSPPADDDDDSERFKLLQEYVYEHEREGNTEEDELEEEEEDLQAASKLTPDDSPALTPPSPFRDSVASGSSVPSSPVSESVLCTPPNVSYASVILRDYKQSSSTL

[9] = biological target: Metabotropic glutamate receptor 1 (Homo sapiens) (UniProt Q13255); test: Agonist activity at mGluR1 expressed in CHO cells assessed as stimulation of phosphatidyl inositol hydrolysis at 10 uM; type: functional, cell-based
[10] = biological target: Metabotropic glutamate receptor 2 (Homo sapiens) (UniProt Q14416); test: Antagonist activity at mGluR2 expressed in CHO cells assessed as inhibition of forskolin stimulated cAMP accumulation at 10 uM; type: functional, cell-based
[11] = biological target: Metabotropic glutamate receptor 6 (Homo sapiens) (UniProt O15303); test: Antagonist activity at mGluR6 expressed in CHO cells assessed as inhibition of forskolin stimulated cAMP accumulation at 10 uM; type: functional, cell-based

| SMILES | Ki [1] [µM] | Ki [2] [µM] | Ki [3] [µM] | Activity [4] | Activity [5] | Activity [6] | Activity [7] | Activity [8] | Activity [9] | Activity [10] | Activity [11] |
| --- | --- | --- | --- | --- | --- | --- | --- | --- | --- | --- | --- |
| N[C@]1(C(=O)O)C[C@H](C(=O)O)C[C@@H]1C(=O)O | > 50 | > 50 | > 50 | inactive | inactive | inactive | inactive | inactive | inactive | inactive | inactive |
| N[C@@]1(C(=O)O)C[C@H](C(=O)O)C[C@@H]1C(=O)O | > 50 | > 50 | > 50 | inactive | inactive | inactive | inactive | inactive | inactive | inactive | inactive |
| N[C@@]1(C(=O)O)C[C@@H](C(=O)O)C[C@H]1C(=O)O | > 50 | > 50 | > 50 | inactive | 30% | inactive | 30% | inactive | inactive |  |  |
| N[C@]1(C(=O)O)C[C@@H](C(=O)O)C[C@H]1C(=O)O | > 50 | 10 | > 50 | inactive | inactive | inactive | inactive | inactive | inactive | inactive | inactive |
